In PubChem BioAssay (NCI):
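The concentration for 50% growth inhibition is given as GI50. TGI denotes the concentration required for complete inhibition of growth.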

Assays:
Assay in all cases: inhibition of tumour cell growth, NCI panel, 384-well format
SR leukemia = tested on: SR leukemia
UACC-257 melanoma = tested on: UACC-257 melanoma
RPMI-8226 leukemia = tested on: RPMI-8226 leukemia
SF-295 CNS = tested on: SF-295 CNS
NCI-H226 lung = tested on: NCI-H226 lung
PC-3 prostate = tested on: PC-3 prostate
NCI-H322M lung = tested on: NCI-H322M lung
HS 578T breast = tested on: HS 578T breast
MCF7 breast = tested on: MCF7 breast
MDA-MB-231 breast = tested on: MDA-MB-231 breast
SK-MEL-2 melanoma = tested on: SK-MEL-2 melanoma
DU-145 prostate = tested on: DU-145 prostate
UO-31 renal = tested on: UO-31 renal

SMILES	GI50 (SR leukemia) [µM]	TGI (SR leukemia) [µM]	GI50 (UACC-257 melanoma) [µM]	TGI (UACC-257 melanoma) [µM]	GI50 (RPMI-8226 leukemia) [µM]	TGI (RPMI-8226 leukemia) [µM]	GI50 (SF-295 CNS) [µM]	TGI (SF-295 CNS) [µM]	GI50 (NCI-H226 lung) [µM]	TGI (NCI-H226 lung) [µM]	GI50 (PC-3 prostate) [µM]	TGI (PC-3 prostate) [µM]	GI50 (NCI-H322M lung) [µM]	TGI (NCI-H322M lung) [µM]	GI50 (HS 578T breast) [µM]	TGI (HS 578T breast) [µM]	GI50 (MCF7 breast) [µM]	TGI (MCF7 breast) [µM]	GI50 (MDA-MB-231 breast) [µM]	TGI (MDA-MB-231 breast) [µM]	other results
CN1CC[C@@H](c2c(O)cc(O)c3c(=O)cc(-c4ccc(C(F)(F)F)cc4Cl)oc23)[C@@H]1CO	1.88	5.32	12.4	24.9	7.71	20.3	16.7	30.8	12.1	26.8	14.6	28.4	15.5	29.2	13.4	26.3	14.7	28.2	15.9	29.9	GI50 (SK-MEL-2 melanoma): 14.5 µM; TGI (SK-MEL-2 melanoma): 27.7 µM; GI50 (DU-145 prostate): 15.5 µM; TGI (DU-145 prostate): 29.3 µM; GI50 (UO-31 renal): 10.8 µM; TGI (UO-31 renal): 23.2 µM
Cn1c(Nc2ccc(C(F)(F)F)cc2)nc2cc(Oc3ccnc(-c4ncc(C(F)(F)F)[nH]4)c3)ccc21	0.27	2.11	0.137	1.51	0.232	2.09	0.249	5.66	1.5	19.2	0.833	12.3	0.106	12.6	0.0391	6.25	1.59	6.67	0.0367	1.8	GI50 (SK-MEL-2 melanoma): 0.0238 µM; TGI (SK-MEL-2 melanoma): 0.101 µM; GI50 (DU-145 prostate): 0.0352 µM; TGI (DU-145 prostate): 13.6 µM; GI50 (UO-31 renal): 0.332 µM; TGI (UO-31 renal): 12.6 µM
